Here are results for 15 compounds from patent US10954214B2 (Janssen Pharmaceutica NV, priority 2016, dated 2021).

Structures are written as SMILES. Where only a bound is given, the exact number is not on record here.

In assay [1] the test system is OCI-Ly3 cells. Nature of the assay: 4-day proliferation assay, OCI-Ly3. The format is cell-based, human. The conditions noted are these: Homo sapiens, 96 h, 4 days incubation, CellTiterGLO, read-out: Anti-proliferation: OCI-LY-3 IC50. The method, then: (§1) To assess anti-proliferative effects, MALT1 inhibitor test compounds were tested in 4-day proliferation assays using three different DLBCL cell lines.
(§2) Cells should be kept between 0.5-2.5 million cells per mL during culturing and cells should be supplemented every 2-3 days with fresh 50 μM beta-mercaptoenthanol. No beta-mercaptoethanol is used during the proliferation assay. OCI-Ly7 cells were propagated in IMDM (ThermoFisher) supplemented with 10% fetal bovine serum (HyClone), 2 mM L-glutamine (Sigma Aldrich) and 50 μg/mL Gentamycin. Cell passage numbers should not exceed 30 (for OCI-Ly3 cells with passage number lower than 10 were used).
(§3) 10,000 TMD8, 10,000 OCI-Ly3 or 2,000 OCI-Ly7 cells were seeded in 100 μL media per well and incubated for 4 days at 37° C. and 5% CO2. Cell plating numbers were chosen based on growth curves to ensure linear cell growth. After 4 days of incubation 50 μL CellTiterGLO reagent (Promega) were added to each well and luminescence was measured on the Envision after 10 min of incubation at room temperature.
(§4) LC=median of the low control values
(§5) An estimate of the slope of the plot in terms of the Hill coefficient was also obtained.
A general note: ATP-based viability assays read luminescence as a measure of living cells.

Assay [2] concerns TMD8 cells. The assay can be described thus: 4-day proliferation assay, TMD8. It counts as cell-based. The settings on record: Homo sapiens, 96 h, 4 days incubation, CellTiterGLO, read-out: Anti-proliferation: TMD-8 IC50. As to the method: as §1, §2, §3, §4, §5
Assay [3] concerns IL6 secretion by TMD8 ABC-DLBCL cells. The assay can be described thus: Human IL6 Mesoscale assay (TMD-8). It counts as cell-based. The conditions noted are these: Homo sapiens, TMD8; TMD-8 cells, 24 h. The method in brief:
(§6)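 100,000 cells/well treated with compound in 9 twofold steps from 15 μM to 58.6 nM (0.3% DMSO) for 24 h at 37° C; supernatant cytokine measured by MSD electrochemiluminescence sandwich immunoassay. DMSO wells set maximum signal, BTK inhibitor RN486 (30 nM to 131 pM) set maximum inhibition.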

The target of assay [4] is full-length MALT1 protein (Strep-MALT1(1-824)-His) (Homo sapiens (Human), UniProt Q9UDY8). The assay can be described thus: MALT1 Biochemical Protease Assay (Ac-LRSR-AMC substrate). The settings on record: 10 nM FL MALT1, 200 μM Ac-LRSR-AMC, 4 h at RT; read-out: MALT1_Biochemical activity (Ac-LRSR-amc) IC50. Put shortly:
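Full-length MALT1 pre-incubated with compounds (30 μM to 0.5 nM, 11 threefold steps) for 50 min at RT. After Ac-LRSR-AMC was added, the reaction ran 4 h at RT and AMC fluorescence was read. IC50 and Hill slope from curve fitting against no-enzyme and no-compound controls.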

Assay [5] has as its system IL10 secretion by TMD8 ABC-DLBCL cells. Nature of the assay: Human IL10 Mesoscale assay (TMD-8). The format is cell-based. The settings on record: Homo sapiens, TMD8; TMD-8 cells, 24 h. The method in brief: as §6
For assay [6], the system named is IL10 secretion by OCI-LY3 ABC-DLBCL cells. The assay can be described thus: Human IL10 Mesoscale assay (OCI-LY3). The conditions noted are these: Homo sapiens, 24 h. It counts as cell-based. The method in brief:
as §6

Assay [7] has as its system IL6 secretion by OCI-LY3 ABC-DLBCL cells. Nature of the assay: Human IL6 Mesoscale assay (OCI-LY3). It counts as cell-based. The settings on record: Homo sapiens, 24 h. The method in brief: as §6

Chain of full-length MALT1 protein (Strep-MALT1(1-824)-His) (Q9UDY8 whole entry): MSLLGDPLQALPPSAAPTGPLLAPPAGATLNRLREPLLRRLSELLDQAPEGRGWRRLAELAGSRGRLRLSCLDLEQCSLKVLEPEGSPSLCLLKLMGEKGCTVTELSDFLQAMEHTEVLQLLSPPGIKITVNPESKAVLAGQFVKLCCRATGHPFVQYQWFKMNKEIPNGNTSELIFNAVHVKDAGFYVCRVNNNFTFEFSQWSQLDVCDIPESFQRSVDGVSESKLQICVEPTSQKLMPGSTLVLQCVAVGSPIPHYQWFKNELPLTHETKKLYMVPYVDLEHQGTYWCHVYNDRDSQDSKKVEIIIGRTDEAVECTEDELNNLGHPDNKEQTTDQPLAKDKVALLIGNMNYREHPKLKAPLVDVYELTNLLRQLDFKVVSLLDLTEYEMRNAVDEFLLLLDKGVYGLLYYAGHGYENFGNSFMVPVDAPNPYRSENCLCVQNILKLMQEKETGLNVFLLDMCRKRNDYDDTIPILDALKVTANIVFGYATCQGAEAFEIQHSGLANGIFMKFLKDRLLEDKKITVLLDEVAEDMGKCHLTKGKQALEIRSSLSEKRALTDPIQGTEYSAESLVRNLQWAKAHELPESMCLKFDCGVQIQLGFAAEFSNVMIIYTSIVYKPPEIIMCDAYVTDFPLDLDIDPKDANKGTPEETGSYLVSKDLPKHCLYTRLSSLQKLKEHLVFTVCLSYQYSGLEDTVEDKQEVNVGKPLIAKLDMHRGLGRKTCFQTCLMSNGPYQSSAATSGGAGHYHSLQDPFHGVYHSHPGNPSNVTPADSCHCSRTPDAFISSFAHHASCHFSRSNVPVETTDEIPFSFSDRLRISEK

With `CC(C)Cc1c(C(=O)Nc2cnc(-n3nccn3)c(Cl)c2)cnn1-c1cccc2ncccc12` [Cpd 16, N-(5-Chloro-6-(2H-1,2,3-triazol-2-yl)pyridin-3-yl)-5-isobutyl-1-(quinolin-5-yl)-1H-pyrazole-4-carboxamide], the IC50 in assay [1] is 580 nM; in assay [2], 10700 nM; in assay [3], 1480 nM; in assay [4] it was 724 nM.

As for `Cn1ccc(-c2ncc(NC(=O)c3cnn(-c4cccc5ccncc45)c3C(F)(F)F)cc2Cl)n1` [Cpd 21, N-(5-Chloro-6-(1-methyl-1H-pyrazol-3-yl)pyridin-3-yl)-1-(isoquinolin-8-yl)-5-(trifluoromethyl)-1H-pyrazole-4-carboxamide], the IC50 is roughly 12900 nM in assay [1], greater than 20000 nM in assay [2], greater than 15000 nM in assay [3] and 1440 nM in assay [4].

`Cc1ccc2ncccc2c1-n1ncc(C(=O)Nc2cnc(-n3nccn3)c(Cl)c2)c1C(F)(F)F` [Cpd 27, N-(5-Chloro-6-(2H-1,2,3-triazol-2-yl)pyridin-3-yl)-1-(6-methylquinolin-5-yl)-5-(trifluoromethyl)-1H-pyrazole-4-carboxamide]: the IC50 came to 1950 nM in assay [1], 13800 nM in assay [2], 105 nM in assay [3] and 35 nM in assay [4].

Turning to `Cc1cncc2c(-n3ncc(C(=O)Nc4cnc(-n5nccn5)c(Cl)c4)c3C(F)(F)F)cccc12` [Cpd 33, N-(5-Chloro-6-(2H-1,2,3-triazol-2-yl)pyridin-3-yl)-1-(4-methylisoquinolin-8-yl)-5-(trifluoromethyl)-1H-pyrazole-4-carboxamide], the IC50 in assay [1] was greater than 20000 nM; in assay [2] it was greater than 20000 nM; in assay [3], 7410 nM; in assay [5], 1050 nM; in assay [4] it was 1100 nM.

Turning to `O=C(Nc1cnc(-n2nccn2)c(Cl)c1)c1cnn(-c2nccc3ccccc23)c1C(F)F` [Cpd 56, N-(5-Chloro-6-(2H-1,2,3-triazol-2-yl)pyridin-3-yl)-5-(difluoromethyl)-1-(isoquinolin-1-yl)-1H-pyrazole-4-carboxamide], the IC50 in assay [1] is 540 nM; in assay [2] it was greater than 20000 nM; in assay [3] it was 490 nM; in assay [5], 275 nM; in assay [4], 257 nM.

On to `O=C(Nc1cnc(-n2nccn2)c(Cl)c1)c1cnn(-c2nccc3ccccc23)c1C(F)(F)F` [Cpd 57, N-(5-chloro-6-(2H-1,2,3-triazol-2-yl)pyridin-3-yl)-1-(isoquinolin-1-yl)-5-(trifluoromethyl)-1H-pyrazole-4-carboxamide], for which the IC50 was 220 nM in assay [1]; roughly 8910 nM in assay [2]; 81 nM in assay [3]; 85 nM in assay [5]; 43 nM in assay [4].

As for `Nc1nccc(-c2ccc(NC(=O)c3cnn(-c4cncc5ccccc45)c3C(F)(F)F)cc2Cl)n1` [Cpd 58, N-(4-(2-Aminopyrimidin-4-yl)-3-chlorophenyl)-1-(isoquinolin-4-yl)-5-(trifluoromethyl)-1H-pyrazole-4-carboxamide], the IC50 in assay [1] was 500 nM; in assay [2], 4470 nM; in assay [3] it was 331 nM; in assay [5], 288 nM; in assay [4], 141 nM.

Take `N#Cc1cc(NC(=O)c2cnn(-c3cncc4ccccc34)c2C(F)(F)F)ccc1-n1nccn1` [Cpd 59, N-(3-Cyano-4-(2H-1,2,3-triazol-2-yl)phenyl)-1-(isoquinolin-4-yl)-5-(trifluoromethyl)-1H-pyrazole-4-carboxamide]: the IC50 in assay [1] was determined as 140 nM; in assay [2] it was 6760 nM; in assay [3], 68 nM; in assay [5], 74 nM; in assay [4], 31 nM.

On to `O=C(Nc1cnc(-n2nccn2)c(F)c1)c1cnn(-c2cncc3ccccc23)c1C(F)(F)F` [Cpd 61, N-(5-fluoro-6-(2H-1,2,3-triazol-2-yl)pyridin-3-yl)-1-(isoquinolin-4-yl)-5-(trifluoromethyl)-1H-pyrazole-4-carboxamide], for which the IC50 in assay [1] was 1260 nM; in assay [2] it was roughly 14100 nM; in assay [3], 263 nM; in assay [5] it was 224 nM; in assay [4], 102 nM.

For `N#Cc1cc(NC(=O)c2cnn(-c3ccnc4ccsc34)c2C(F)(F)F)cnc1-n1nccn1` [Cpd 128, N-(5-cyano-6-(2H-1,2,3-triazol-2-yl)pyridin-3-yl)-1-(thieno[3,2-b]pyridin-7-yl)-5-(trifluoromethyl)-1H-pyrazole-4-carboxamide], the IC50 in assay [1] was 188 nM; in assay [6] it was 36 nM; in assay [3], 95 nM; in assay [7] it was 27 nM; in assay [5], 105 nM; in assay [4] it was 16 nM.

As for `Cc1csc2c(-n3ncc(C(=O)Nc4cnc(-n5nccn5)c(C#N)c4)c3C(F)(F)F)ccnc12` [Cpd 310, N-(5-cyano-6-(2H-1,2,3-triazol-2-yl)pyridin-3-yl)-1-(3-methylthieno[3,2-b]pyridin-7-yl)-5-(trifluoromethyl)-1H-pyrazole-4-carboxamide], the IC50 was 1270 nM in assay [1], 490 nM in assay [6], 646 nM in assay [7] and 52 nM in assay [4].

In the case of `CNC(=O)c1ncc(-n2ncc(C(=O)Nc3cnc(-n4nccn4)c(Cl)c3)c2C(F)(F)F)c2ccsc12` [Cpd 392, 4-(4-((5-chloro-6-(2H-1,2,3-triazol-2-yl)pyridin-3-yl)carbamoyl)-5-(trifluoromethyl)-1H-pyrazol-1-yl)-N-methylthieno[2,3-c]pyridine-7-carboxamide], the IC50 in assay [6] turned out to be 17 nM; in assay [3], 170 nM; in assay [7], 26 nM; in assay [5] it was 200 nM; in assay [4] it was 26 nM.

Turning to `O=C(Nc1cnc(-n2nccn2)c(Cl)c1)c1cnn(-c2cccc3c[n+]([O-])ccc23)c1C(F)(F)F` [Cpd 407, 5-(4-((5-chloro-6-(2H-1,2,3-triazol-2-yl)pyridin-3-yl)carbamoyl)-5-(trifluoromethyl)-1H-pyrazol-1-yl)isoquinoline 2-oxide], the IC50 turned out to be 40 nM in assay [6]; 110 nM in assay [3]; 34 nM in assay [7]; 100 nM in assay [5]; 21 nM in assay [4].

Take `O=C(Nc1cnc(-n2nccn2)c(Cl)c1)c1cnn(-c2cccc3c2ccc[n+]3[O-])c1C(F)(F)F` [Cpd 408, 5-(4-((5-chloro-6-(2H-1,2,3-triazol-2-yl)pyridin-3-yl)carbamoyl)-5-(trifluoromethyl)-1H-pyrazol-1-yl)quinoline 1-oxide]: the IC50 in assay [6] was found to be 81 nM; in assay [3], 141 nM; in assay [7], 54 nM; in assay [5], 162 nM; in assay [4], 112 nM.

In the case of `O=C(Nc1cnc(-n2nccn2)c(Cl)c1)c1cnn(-c2cccc3cnccc23)c1C(F)(F)F` [Cpd 449, N-(5-chloro-6-(2H-1,2,3-triazol-2-yl)pyridin-3-yl)-1-(isoquinolin-5-yl)-5-(trifluoromethyl)-1H-pyrazole-4-carboxamide], the IC50 in assay [6] was 68 nM; in assay [3], 78 nM; in assay [7], 100 nM; in assay [5], 98 nM; in assay [4], 23 nM.
